Assay results as given in ChEMBL document CHEMBL1128423, “Synthesis and evaluation of 6,11-ethanohexahydrobenzo[b]quinolizidines: a new class of noncompetitive N-methyl-D-aspartate antagonists” (J Med Chem, 1995).
pKi: −log10 of the molar value.

Biological target: Glutamate NMDA receptor
Experiment: Displacement of [3H]TCP from NMDA receptor of rat brain membranes
Assay type: cell membranes, Membrane

SMILES	pKi
c1ccc2c(c1)C1C3CCCC3C2N2CCCCC12 (configuration not stated)	7.82
Oc1cccc2c1C1C3CCCC3C2N2CCCCC12 (configuration not stated)	8.64
c1ccc2c(c1)C1C3OCCC3C2N2CCCCC12 (configuration not stated)	6.22
c1ccc2c(c1)CC1CCCCN1C2 (configuration not stated)	5.00
Fc1ccc2c(c1)C1C3CCCC3C2N2CCCCC12 (configuration not stated)	7.70
CC12c3ccccc3C(C3CCCC31)N1CCCCC12 (configuration not stated)	7.34
c1ccc2c(c1)C1CCC2N2CCCCC12 (configuration not stated)	6.62
c1ccc2c(c1)C1C3CCCCC3C2N2CCCCC12 (configuration not stated)	6.87
Oc1ccc2c(c1)C1C3CCCC3C2N2CCCCC12 (configuration not stated)	8.64
Oc1ccc2c(c1)C1C3CCCC3C2C2CCCCN21 (configuration not stated)	7.64
Brc1ccc2c(c1)C1C3CCCC3C2N2CCCCC12 (configuration not stated)	7.39
Nc1ccc2c(c1)C1C3CCCC3C2N2CCCCC12 (configuration not stated)	7.92
